Test results reported in patent US11786592B2, “Compositions of cardiolipin adjuvants and methods of use thereof” (The University of Hong Kong, priority 2021, dated 2023).

Key:
[1] = test system: BALB/c mice immunized with human quadrivalent influenza vaccine; format: in vivo; conditions: 16 days post-immunization; flow cytometry; vaccine plus cardiolipin compared to vehicle or vaccine only; FIG. 3A-3H
[2] = test system: BALB/c mice immunized with human quadrivalent influenza vaccine; format: in vivo

SMILES: CCCCC/C=C\C/C=C\CCCCCCCC(=O)OC[C@H](COP(=O)([O-])OCC(O)COP(=O)([O-])OC[C@@H](COC(=O)CCCCCCC/C=C\C/C=C\CCCCC)OC(=O)CCCCCCC/C=C\C/C=C\CCCCC)OC(=O)CCCCCCC/C=C\C/C=C\CCCCC.[Na+].[Na+] (stereo partly shown) [cardiolipin (C18:2)4]
- cells producing the examined cytokines (IFN-γ, IL-4 and IL-17A) in inguinal lymph nodes [1]: significant increase
- accelerated seroconversion (time post-immunization) ([2]; 100 μg/kg cardiolipin (C18:2)4 mixed with […] TETRA vaccine (1 microgram HA), intramuscular and subcutaneous, cardiolipin booster at day 10, compared to vehicle or vaccine only): 7 days
- vaccine antigen-specific antibodies in sera ([2]; 13 days post-immunization, 100 μg/kg cardiolipin (C18:2)4 with vaccine, compared to vehicle or vaccine only, FIG. 2A-2B (IgM, IgG)): significantly higher
- subclasses of virus-specific antibodies elicited (Th1/Th2 response) ([2]; serum IgG, IgG1, IgG2a, IgG2b by ELISA, FIG. 2C-2F): elicited both IgG2a and IgG1 subclasses of virus-specific antibodies, indicating a balanced Th1/Th2 response
